The record followed here is ChEMBL document CHEMBL3352790, “Small molecule ghrelin receptor inverse agonists and antagonists” (J Med Chem, 2014).

The target of data set [1] is T1, Growth hormone secretagogue receptor type 1 (Homo sapiens, UniProt Q92847). The data set is described as follows: Binding affinity to human ghrelin receptor by receptor binding assay.
The nature of data set [2]: Oral bioavailability in rat. The conditions noted are these: in vivo. In kind it is ADME, organism-based.
The species entered for data set [3] is Mus musculus. The data set is described as follows: Reduction in fat content in mouse. Format: functional. The arrangement: scale not given: the % may be the effect or the level left.
Data set [4] is described as follows: Unbound fraction rat brain. In kind it is ADME, tissue-based.
Data set [5] deals with T1, Growth hormone secretagogue receptor type 1. Put plainly: Antagonist activity against human ghrelin receptor by FLIPR assay.
Data set [6] concerns Mus musculus. Put plainly: Reduction in food intake in C57BL/6J mouse at 30 mg/kg, ip after 2 hrs. The conditions noted are these: route intraperitoneal. In kind it is functional.

T1 sequence (Q92847 whole entry): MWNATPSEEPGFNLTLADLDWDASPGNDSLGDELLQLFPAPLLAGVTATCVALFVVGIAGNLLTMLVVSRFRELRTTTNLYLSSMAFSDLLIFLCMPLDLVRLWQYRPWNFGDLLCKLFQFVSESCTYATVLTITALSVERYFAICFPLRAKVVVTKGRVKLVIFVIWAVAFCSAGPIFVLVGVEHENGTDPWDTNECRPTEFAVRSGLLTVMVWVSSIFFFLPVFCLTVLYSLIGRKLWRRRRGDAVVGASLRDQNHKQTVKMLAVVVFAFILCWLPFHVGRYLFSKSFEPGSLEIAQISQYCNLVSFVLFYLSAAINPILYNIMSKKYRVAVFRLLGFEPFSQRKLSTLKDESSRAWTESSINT

In data set [1], `CCN(CC)CCCS(=O)(=O)N[C@H](CCc1ccccc1)c1nc(-c2ccc(OC)cc2)n[nH]1` yielded a Ki of 15 nM. Moreover, in data set [2], the bioavailability is 63%. In the data set listed under Mus musculus [3], this compound gave an Activity of 50%.

Take `CN1CCN([C@@H](C(=O)NNc2cc(C(F)(F)F)cc(C(F)(F)F)c2)c2ccccc2Cl)CC1`: in data set [4], the Fu amounted to 0.2%. In data set [5], this compound gave an IC50 of 6.31 nM.

`O=C(NNc1cc(C(F)(F)F)cc(C(F)(F)F)c1)[C@@H](c1cccnc1)N1CCN2CCC[C@@H]2C1` gave an IC50 in data set [5] of 3.98 nM.

Take `CC(NC(=O)N(Cc1ccccc1Cl)C1CCN(C)CC1)c1cccc(Cl)c1Cl` (configuration not stated): the inhibition in vivo at 30 mg/kg in the data set on Mus musculus [6] was 70%.
